Results published in patent publication US11053204B2, “Pyrimidinyloxy benzene derivatives as herbicides” (FMC Corporation, priority 2015, dated 2021).

What was measured:
Type in all cases: in vivo
[1] = system: kochia (Kochia scoparia); test: Test A preemergence, visual injury rating; settings: 0 to 100 scale (0 no effect, 100 complete control)
In short: (§1)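 Visual injury scored 0–100 (100 = complete control) against untreated controls about 10 days after treatment in a greenhouse. Test chemicals, formulated with surfactant in non-phytotoxic solvent, were sprayed on soil preemergence or on 2-10 cm, one- to two-leaf plants postemergence.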

[2] = system: pigweed (Amaranthus retroflexus); test: Test A preemergence, visual injury rating; settings: 0 to 100 scale (0 no effect, 100 complete control)
In short: as §1

[3] = system: Italian ryegrass (Lolium multiflorum); test: Test A postemergence, visual injury rating; settings: 0 is no effect, 100 is complete control
In short: as §1

[4] = system: barnyardgrass (Echinochloa crus-galli); test: Test A postemergence, visual injury rating; settings: 0 is no effect, 100 is complete control
In short: as §1

[5] = system: blackgrass (Alopecurus myosuroides); test: Test A postemergence, visual injury rating; settings: 0 is no effect, 100 is complete control
In short: as §1

[6] = system: corn (Zea mays); test: Test A postemergence, visual injury rating; settings: 0 is no effect, 100 is complete control
In short: as §1

[7] = system: galium (catchweed bedstraw, Galium aparine); test: Test A postemergence, visual injury rating; settings: 0 is no effect, 100 is complete control
In short: as §1

[8] = system: giant foxtail (Setaria faberii); test: Test A postemergence, visual injury rating; settings: 0 is no effect, 100 is complete control
In short: as §1

[9] = system: kochia (Kochia scoparia); test: Test A postemergence, visual injury rating; settings: 0 is no effect, 100 is complete control
In short: as §1

[10] = system: pigweed (Amaranthus retroflexus); test: Test A postemergence, visual injury rating; settings: 0 is no effect, 100 is complete control
In short: as §1

[11] = system: ragweed (common ragweed, Ambrosia elatior); test: Test A postemergence, visual injury rating; settings: 0 is no effect, 100 is complete control
In short: as §1

[12] = system: wheat (Triticum aestivum); test: Test A postemergence, visual injury rating; settings: 0 is no effect, 100 is complete control
In short: as §1

[13] = system: chickweed (common chickweed, Stellaria media); test: Test C postemergence, plant response rating; settings: for Plant response rating, Chickweed: scale 0 to 100; for Chickweed plant response rating: scale 0 to 100 (0 no effect, 100 complete control)
Text: (§2) Seeds of plant species selected from blackgrass (Alopecurus myosuroides), ryegrass, Italian (Italian ryegrass, Lolium multiflorum), wheat (winter wheat, Triticum aestivum), galium (catchweed bedstraw, Galium aparine), corn (Zea mays), crabgrass, large (large crabgrass, Digitaria sanguinalis), foxtail, giant (giant foxtail, Setaria faberii), johnsongrass (Sorghum halepense), lambsquarters (Chenopodium album), morningglory (Ipomoea coccinea), nutsedge, yellow (yellow nutsedge, Cyperus esculentus), pigweed (Amaranthus retroflexus), ragweed (common ragweed, Ambrosia elatior), soybean (Glycine max), barnyardgrass (Echinochloa crus-galli), oilseed rape (Brassica napus), pigweed, palmer (palmer pigweed, Amaranthus palmeri), waterhemp (common waterhemp, Amaranthus rudis), velvetleaf (Abutilon theophrasti), kochia (Kochia scoparia), surinam grass (Brachiaria decumbens), nightshade (eastern black nightshade, Solanum ptycanthum), wild poinsettia (Euphorbia heterophylla), windgrass (Apera spica-venti), and oat, wild (wild oat Avena fatua), were planted into a blend of loam soil and sand or a silt loam soil and treated preemergence with test chemicals formulated in a non-phytotoxic solvent mixture which included a surfactant.
(§3) At the same time, plants selected from these crop and weed species and also chickweed (common chickweed, Stellaria media), buckwheat, wild (wild buckwheat, Polygonum convolvulus), wild mustard (Sinapis arvensis), field poppy (Papaver rhoeas), field violet (Viola arvensis), geranium, cutleaf (cutleaf geranium, Geranium dissectum), Canada thistle (Cirsium arvense), and speedwell (bird's-eye speedwell, Veronica persica), were planted in pots containing Sunshine Redi-Earth® planting medium comprising spaghnum peat moss, vermiculite, starter nutrients and dolomitic limestone and treated with postemergence applications of test chemicals formulated in the same manner. Plants ranged in height from 2 to 18 cm (1- to 4-leaf stage) for postemergence treatments. Treated plants and controls were maintained in a greenhouse for 13 to 15 d, after which time all species were compared to controls and visually evaluated. Plant response ratings, summarized in Table C, are based on a scale of 0 to 100 where 0 is no effect and 100 is complete control. A dash (-) response means no test result.

[14] = system: kochia (Kochia scoparia); test: Test C postemergence, plant response rating; settings: for Plant response rating, Kochia: scale 0 to 100; for Kochia plant response rating: scale 0 to 100 (0 no effect, 100 complete control)
Text: as §2, §3

[15] = system: morningglory (Ipomoea coccinea); test: Test C postemergence, plant response rating; settings: for Plant response rating, Morningglory: scale 0 to 100; for Morningglory plant response rating: scale 0 to 100 (0 no effect, 100 complete control)
Text: as §2, §3

[16] = 125 g ai/ha, 0 to 100 scale, approximately 10 days

N#Cc1cccc(Oc2ncc(Cl)cn2)c1CCCC(F)(F)F [Compound 72]
Kochia plant response rating ([1]; 125 g ai/ha): 90
Kochia plant response rating ([1]; 500 g ai/ha): 100
Pigweed plant response rating ([2]; 125 g ai/ha): 100
Pigweed plant response rating ([2]; 500 g ai/ha): 100
Ryegrass, Italian plant response rating [3, 16]: 10
Ryegrass, Italian plant response rating (0 to 100 scale) ([3]; 500 g ai/ha): 40
Barnyardgrass plant response rating (0 to 100 scale) ([4]; 125 g ai/ha): 80
Barnyardgrass plant response rating (0 to 100 scale) ([4]; 500 g ai/ha): 100
Blackgrass plant response rating (0 to 100 scale) ([5]; 125 g ai/ha): 30
Blackgrass plant response rating (0 to 100 scale) ([5]; 500 g ai/ha): 50
Corn plant response rating (0 to 100 scale) ([6]; 125 g ai/ha): 50
Corn plant response rating (0 to 100 scale) ([6]; 500 g ai/ha): 60
Galium plant response rating (0 to 100 scale) ([7]; 125 g ai/ha): 80
Galium plant response rating (0 to 100 scale) ([7]; 500 g ai/ha): 100
Foxtail, Giant plant response rating (0 to 100 scale) ([8]; 125 g ai/ha): 70
Foxtail, Giant plant response rating (0 to 100 scale) ([8]; 500 g ai/ha): 100
Kochia plant response rating [9, 16]: 100
Kochia plant response rating (0 to 100 scale) ([9]; 500 g ai/ha): 100
Pigweed plant response rating [10, 16]: 100
Pigweed plant response rating (0 to 100 scale) ([10]; 500 g ai/ha): 100
Ragweed plant response rating [11, 16]: 10
Ragweed plant response rating (0 to 100 scale) ([11]; 500 g ai/ha): 30
Wheat plant response rating [12, 16]: 10
Wheat plant response rating (0 to 100 scale) ([12]; 500 g ai/ha): 40
Plant response rating, Chickweed ([13]; 16 g ai/ha): 65
Plant response rating, Chickweed ([13]; 31 g ai/ha): 85
Chickweed plant response rating ([13]; 62 g ai/ha): 90
Chickweed plant response rating ([13]; 125 g ai/ha): 98
Plant response rating, Kochia ([14]; 16 g ai/ha): 100
Plant response rating, Kochia ([14]; 31 g ai/ha): 100
Kochia plant response rating ([14]; 62 g ai/ha): 100
Kochia plant response rating ([14]; 125 g ai/ha): 100
Plant response rating, Morningglory ([15]; 16 g ai/ha): 75
Plant response rating, Morningglory ([15]; 31 g ai/ha): 65
Morningglory plant response rating ([15]; 62 g ai/ha): 40
Morningglory plant response rating ([15]; 125 g ai/ha): 70
